Source: US5716627A, “Skin care compositions containing fatty acid amides, azoles, and retinol or retinyl ester” (Elizabeth Arden Co., Division of Conopco, Inc., priority 1996, dated 1998)

What was measured:
Human keratinocytes = experiment: 3H-thymidine incorporation by cultured keratinocytes (keratinocyte proliferation); assay type: cell-based
Method: Human keratinocytes, isolated from neonatal foreskin by trypsin treatment were grown in Dulbecco Modification Eagle (DME) Hams F12 (1:1) medium/10% fetal calf serum in the presence of irradiated 3T3 mouse fibroblasts for establishing dividing keratinocyte colonies. Cells were grown under the above condition until their second passage and kept frozen for future use. […] On day 7, when the cells were 80-90% confluent, they were trypsinized and plated in the serum-free medium for the various experiments.
The incorporation of ^3 H-thymidine by cultured keratinocytes was used as an assay of keratinocyte proliferation. Thymidine is one of four deoxynucleosides which are the monomeric units of DNA, the universal library of genetic information in the animal kingdom. Prior to cell division of a somatic cell such as a keratinocyte, the complete genome of the cell undergoing cell division is replicated. This involves large scale DNA synthesis by the cell and enables both daughter cells to receive identical copies of the genetic material. When ^3 H-thymidine is included in the culture media of keratinocytes which are synthesizing DNA in preparation for cell division then the labelled nucleoside is incorporated into the newly synthesized DNA. The extent of incorporation of ^3 H-thymidine into a population of cells is proportional to the rate of DNA synthesis by this population of cells and therefore an indication of their cellular proliferation.
Keratinocytes (that were cultured as described above) were plated in 24 well plates at a density of 40,000 cells per well in 1 ml media. After incubation for four days or until the cells were 60-70% confluent, the media was changed. Test compounds were added (in triplicate) to the wells 24 hours after the media change, and four hours later 1 μCi ^3 H-Thymidine in 50 μl media was added per well. Cells were incubated for a further 24 hours. Media was removed from the cells, 10% ice cold trichloroacetic acid (TCA) added and plates were incubated on ice for 30 minutes. Cells were washed five times with 5% TCA and allowed to dissolve in 500 μl 0.1M NaOH for at least one hour (usually overnight). The preparations were neutralized with 0.1M HCl; 50 μl of the cell preparation was used to determine total protein content. Disintegrations per minute (DPM) from ^3 H labelling of DNA was determined by liquid scintillation counting of 900 μl of the cell preparation. Thymidine incorporation results were expressed as DPM/μg protein.

TGase I = experiment: Transglutaminase (TGase I) ELISA in cultured keratinocytes, normalized to DNA content (keratinocyte differentiation); assay type: cell-based, human; settings: for Mean TGase/DNA X 10^-4 ± S.D.: n = 3
Method: Human keratinocytes, isolated from neonatal foreskin by trypsin treatment were grown in Dulbecco Modification Eagle (DME) Hams F12 (1:1) medium/10% fetal calf serum in the presence of irradiated 3T3 mouse fibroblasts for establishing dividing keratinocyte colonies. Cells were grown under the above condition until their second passage and kept frozen for future use. Frozen second passage keratinocytes were thawed and plated into the above medium and grown for five days before they were switched to a serum-free MCDB 153-based medium keratinocyte growth medium (KGM) from Clonetics Corporation, San Diego, Calif., containing 0.15 mM Ca, or keratinocyte serum-free media (KSFM) from GIBCO containing 0.09 mM Ca). On day 7, when the cells were 80-90% confluent, they were trypsinized and plated in the serum-free medium for the various experiments.
During the process of terminal differentiation in the epidermis, a 15 nm thick layer of protein, known as the cornified envelope (CE) is formed on the inner surface of the cell periphery. The CE is composed of numerous distinct proteins which have been cross-linked together by the formation of N^ε -(γ-glutamyl) lysine isodipeptide bonds catalyzed by the action of at least two different transglutaminases (TGases) expressed in the epidermis. TGase I is expressed in abundance in the differentiated layers of the epidermis, especially the granular layer, but is absent in the undifferentiated basal epidermis. Thus TGase I is a useful marker of epidermal keratinocyte differentiation with high TGase I levels indicating a more differentiated state. An ELISA based TGase I assay, using a TGase I antibody, was used to assess the state of differentiation of the cultured keratinocytes in the examples that follow.
Keratinocytes (cultured as described above) were plated in 96 well plates at a density of 3,000 cells per well in 200 μl media. After incubation for four days the media was changed to media containing test compounds (six replicates per test). The cells were cultured for a further 72 hours after which time the media was aspirated and the plates stored at -70° C. Plates were removed from the freezer, and the cells washed with PBS. 100 μl sterile water was added and the cells were freeze fractured by freezing at -70° C. then thawing. The cells were incubated for one hour at room temperature (R/T) with PBS/3% BSA (wash buffer, bovine serum albumin), then rinsed with a fresh aliquot of wash buffer. Cells were incubated with 50 μl of primary antibodies monoclonal anti-human transglutaminase (IgG) obtained from Amersham (mouse) diluted 1:300 in wash buffer for one hour, 37° C. then rinsed two times with wash buffer. Cells were then incubated with 50 μl of secondary antibody (Feb fragment, peroxidase conjugated anti-mouse IgG obtained from Amersham) diluted 1:200 in wash buffer for one hour at 37° C., then rinsed two times with wash buffer. Cells were incubated with substrate solution (4 mg o-phenylene diamine and 3.3 μl 30% H2 O2 in 10 ml 0.1M citrate buffer pH 5.0) for five minutes, R/T, in darkness (under aluminum foil). The reaction was stopped by the addition of 50 μl 4N H2 SO4. The absorbance of samples was read at 492 nm in the plate reader. Out of the six replicates, four were treated with both antibodies, two were treated only with the secondary antibody (i.e., to determine background binding of enzyme conjugated Ab). TGase levels were determined by subtracting background from the readings from each treatment and determining mean ±s.d. for the replicates exposed to both Ab.
The level of TGase-1 detected after treatment of the cells could be influenced by cell number, i.e., the greater the number of cells the greater the level of TGase-1 detected. The level of TGase-1 was normalized to DNA content of the cells in the same well thus eliminating variation due to differences in cell number. […]

[1] = Examples 1-4, overall conclusion

CC1=C(/C=C/C(C)=C/C=C/C(C)=C/CO)C(C)(C)CCC1 [ROH, retinol]
effect on keratinocyte proliferation (in words) (Human keratinocytes; [1]): completely ineffective at increasing keratinocyte proliferation
Thymidine incorporation (% control) (Human keratinocytes; Table 1A, 2.5 × 10^-7 M, 24 hours, 0.25 µM): 106%
mean Thymidine incorp./μg protein ± s.d (Human keratinocytes; Table 1A, 2.5 × 10^-7 M, 24 hours, n = 3): 2218 ± 73 DPM/μg protein
Thymidine incorporation (% control) (Human keratinocytes; Table 1A, 2.5 × 10^-8 M, 24 hours, 0.025 µM): 97%
mean Thymidine incorp./μg protein ± s.d (Human keratinocytes; Table 1A, 2.5 × 10^-8 M, 24 hours, n = 3): 2034 ± 46 DPM/μg protein
Thymidine incorporation (% control) (Human keratinocytes; Table 1A, 2.5 × 10^-9 M, 24 hours, 0.0025 µM): 94%
mean Thymidine incorp./μg protein ± s.d (Human keratinocytes; Table 1A, 2.5 × 10^-9 M, 24 hours, n = 3): 1977 ± 19 DPM/μg protein
Thymidine incorporation (% control) (Human keratinocytes; Table 2A, 2.5 × 10^-9 M RA or ROH, with 10^-8 M LADEA and/or 10^-9 M Bifonazole where named, 24 hours): 111%
mean Thymidine incorp. μg protein ± s.d (Human keratinocytes; Table 2A, 2.5 × 10^-9 M RA or ROH, with 10^-8 M LADEA and/or 10^-9 M Bifonazole where named, 24 hours, n = 3): 4856 ± 217 DPM/μg protein
Thymidine incorporation (% control) (Human keratinocytes; Table 3A, 2.5 × 10^8 M [sic] ROH, with 10^8 M LADEA and/or 10^9 M Climbazole where named, 1440 min): 102%
mean Thymidine incorp/μg protein ± s.d (Human keratinocytes; Table 3A, 2.5 × 10^8 M [sic] ROH, with 10^8 M LADEA and/or 10^9 M Climbazole where named, n = 3): 3788 ± 57 DPM/μg protein
Thymidine incorporation (% control) (Human keratinocytes; Table 4, 2.5 × 10^9 M [sic] RA or ROH, with 10^8 M LAMEA and/or 10^8 M Clotrimazole where named, 24 hours): 113%
mean Thymidine incorp/μg protein ± s.d, normalized to control (Human keratinocytes; Table 4, 2.5 × 10^9 M [sic] RA or ROH, with 10^8 M LAMEA and/or 10^8 M Clotrimazole where named, 24 hours, n = 3): 1.13 ± 0.09
effect on transglutaminase level / keratinocyte differentiation (in words) (TGase I; Example 1, 2.5×10^-7 M, 2.5×10^-8 M and 2.5×10^-9 M): dose dependent
effect on keratinocyte TG1 level / differentiation (in words) (TGase I; Example 2, 2.5×10^-8 M RA or retinol, 10^-8 M LAMEA, 10^-8 M bifonazole, 72 hour): Neither 2.5×10^-8 M retinol nor 10^-8 M LAMEA+10^-8 M bifonazole had an inhibitory effect on the keratinocyte TG1 level
effect on keratinocyte TG1 level / differentiation (in words) (TGase I; Example 3, 2.5×10^-7 M RA, 2.5×10^-9 M retinol with 10^-8 M LADEA and/or climbazole, 72 hour): no inhibitory effect on the keratinocyte TG1 level
effect on keratinocyte differentiation (in words) (TGase I; [1]): significantly less effective than retinoic acid at inhibiting keratinocyte differentiation
TGase/DNA (% Control) (TGase I; Table 1B, 2.5 × 10^-7 M, 72 hours, 0.25 µM): 47%
Mean TGase/DNA X 10^-4 ± S.D. (TGase I; Table 1B, 2.5 × 10^-7 M, 72 hours): 1.14 ± 0.22 X 10^-4
TGase/DNA (% Control) (TGase I; Table 1B, 2.5 × 10^-8 M, 72 hours, 0.025 µM): 77%
Mean TGase/DNA X 10^-4 ± S.D. (TGase I; Table 1B, 2.5 × 10^-8 M, 72 hours): 1.89 ± 0.30 X 10^-4
TGase/DNA (% Control) (TGase I; Table 1B, 2.5 × 10^-9 M, 72 hours, 0.0025 µM): > 100%
Mean TGase/DNA X 10^-4 ± S.D. (TGase I; Table 1B, 2.5 × 10^-9 M, 72 hours): 2.70 ± 0.59 X 10^-4
TGase/DNA (% Control) (TGase I; Table 2B and Example 2B text, 2.5×10^-8 M RA or retinol, 10^-8 M LAMEA, 10^-8 M bifonazole where named, 72 hour): 84%
mean TGase/DNA × 10^-4 ± s.d (TGase I; Table 2B, 2.5 × 10^8 M [sic] RA or ROH, 10^8 M LA-MEA, 10^8 M Bifonazole where named, 72 hour, n = 6): 0.111 ± 0.023 × 10^-4
TGase/DNA (% Control) (TGase I; Table 3B and Example 3B, 2.5×10^-9 M RA or ROH, with 10^-8 M LADEA and/or 10^-8 M climbazole where named, 72 hour): 129%
mean TGase/DNA × 10^4 ± s.d (TGase I; Table 3B, 2.5 × 10^9 M [sic] RA or ROH, with 10^8 M LA-DEA and/or 10^8 M Climbazole where named, 72 hour, n = 6): 1.96 ± 0.33 × 10^4
